Patent US7928231B2, “Thienopyrazoles” (priority 2003, dated 2011)
Counter-ions that a name gives are not always drawn.

Legend:
ITK = target: T1, ITK (Homo sapiens, UniProt Q08881); test: FlashPlate ITK protocol for ITK inhibition determination (ITK autophosphorylation, [γ-33P]ATP); assay type: biochemical; details: MBP-tagged ITK, read-out: IC50 (enzyme inhibition)-
T1 construct: made in house
T1 sequence (Q08881 1-620): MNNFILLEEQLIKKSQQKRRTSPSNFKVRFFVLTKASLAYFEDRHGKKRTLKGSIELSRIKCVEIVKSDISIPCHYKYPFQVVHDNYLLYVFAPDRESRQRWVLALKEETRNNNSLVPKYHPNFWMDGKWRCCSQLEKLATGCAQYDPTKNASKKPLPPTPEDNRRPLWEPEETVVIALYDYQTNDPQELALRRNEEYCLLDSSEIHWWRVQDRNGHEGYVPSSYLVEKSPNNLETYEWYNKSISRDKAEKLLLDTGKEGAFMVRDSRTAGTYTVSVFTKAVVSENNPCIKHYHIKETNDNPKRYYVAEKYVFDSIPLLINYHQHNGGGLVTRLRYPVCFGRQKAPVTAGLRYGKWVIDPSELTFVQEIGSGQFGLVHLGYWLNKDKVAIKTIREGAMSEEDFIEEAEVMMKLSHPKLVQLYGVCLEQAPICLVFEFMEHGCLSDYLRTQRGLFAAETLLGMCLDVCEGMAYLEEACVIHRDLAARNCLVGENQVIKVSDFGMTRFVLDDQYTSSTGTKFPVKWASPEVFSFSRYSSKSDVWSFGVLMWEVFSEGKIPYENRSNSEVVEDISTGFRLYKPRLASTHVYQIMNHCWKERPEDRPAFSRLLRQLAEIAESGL
Experimental: ITK kinase is produced with an N-terminal Maltose Binding Protein tag (MW=˜114 kDa) using a Baculovirus expression system. The transfer of radioactive [γ-^33P] phosphate from [γ-^33P]ATP to ITK during the autophosphorylation of ITK is measured by scintillation counting. Streptavidin-coated FlashPlate Plus™ 384 well microplates (PerkinElmer Life Sciences) are designed for in-plate radiometric assays. The interior of each well is permanently coated with a thin layer of scintillant and a covalently bound layer of Streptavidin. ITK is incubated with [γ-^33P]ATP, biotinylated anti-MBP antibody (Cell Signaling Technology™) and test compounds in a 384-well Streptavidin-coated FlashPlate. The biotinylated anti-MBP binds tightly to the MBP-tagged ITK and cross-links it to Streptavidin on the plate surface. Unreacted ^33P-ATP is washed away and ^33P-phosphorylated ITK is measured when the [γ-^33P] incorporated into ITK stimulates the scintillant on the well to emit light. Radioactivity is assessed in a Packard
TopCount scintillation counter. Reagents are pipetted and dispensed using Beckman Biomek robotic equipment. Test compounds (2 μl per well) are pre-diluted from 1 mM 100% dimethyl sulfoxide solutions into water containing 30% dimethyl sulfoxide to produce dose response curves (10 point curves from (final) 30 μM to ˜1 nM); all tests are performed in duplicate. Background binding is assessed by substituting the enzyme inhibitor EDTA (25 mM final concentration) for test compound and maximal binding is assessed by inclusion of assay buffer instead of compound. Test compounds are added to the wells first (2 μl) followed by 10 μl enzyme solution in assay buffer. After 30 minutes pre-incubation, all other reagents are added in a 10 μl volume. The final reagent concentrations/well are as follows: 20 nM enzyme, 0.25 μCi [γ-^33P]ATP, assay buffer: 20 mM HEPES (pH 7.5), 0.15 M NaCl, 3 mM MgCl2, 3 mM MnCl2, 0.01% Triton X-100, 1 mM DTT, 5% glycerol and 0.01% γ-globulin. The plate is incubated at room temperature (RT) for 60 minutes for the kinase reaction. The reaction is stopped with 20 μl of 50 mM EDTA and the biotinylated anti-MBP is allowed to bind to the ITK and the Streptavidin for a further 60 minutes at RT. The unbound reagents are washed away with 2×100 μl phosphate-buffered saline (PBS). Radioactivity is measured for 45 sec/well.

[1] = test system: IL-4 production from anti-CD3-stimulated murine splenocytes; test: Anti-CD3 stimulated IL-4 assay from murine splenocytes; assay type: cell-based; details: Mus musculus, Splenocyte, 72 h; BALB/c splenocytes, anti-CD3 stimulation, 3 days, IL-4 ELISA; read-out: IC50 IL-4 release inhibition- assay
Experimental: Anti-CD3 stimulated IL-4 Assay from Murine Splenocytes.
The tyrosine kinase ITK is involved in intracellular signaling events induced by several lymphocyte surface receptors. Since ITK deficient mice show an impairment in IL-4 production from T cells, a cell based assay for IL-4 production is used to measure the cellular potency of the ITK inhibitors of the present invention. In this assay the level of IL-4 is measured from the media of anti-CD3-stimulated murine splenocytes, and the ability of compounds of the present invention to inhibit this response is determined.
Spleens from the mouse strain BALB/c are isolated and used to prepare a suspension of mixed splenocytes. The spleens are homogenized with cell strainer (Falcon Cat#352350 and 5 ml syringe) in RPMI media. The mixture is spun down, and the pellets are suspended in 3 ml of Red Blood Cell Lysing Buffer (Sigma Cat#7757) and left for 10 minutes at room temperature. Cells are spun down again, and resuspended in RPMI with 10% FBS and passed through cell strainer. Total cell numbers are determined with hemocytometer.
Splenocytes are adjusted to a cell density of 10 million per ml of RPMI medium supplemented with 10% Foetal Bovine Serum (FBS) and 100 uls of the suspension plated out per well of a 96 round bottom plate. 50 uls of RPMI medium containing 4× the final concentration of test compound is added per well. For IC50 determination the following concentrations of compound are used. The starting concentration is 10 uM and 7 series of 1:3 dilutions are followed, and each compound concentration is set up in triplicate wells. 50 ul of 4× concentration are added. Cell cultures are then stimulated by addition of 50 ul of a 4 ug/ml solution of anti-CD3 antibody, (BD Bioscience Cat #553166) made up in RPMI plus 10% FBS media, and incubated in a 37° C. CO2 incubator for 3 days. At the end of the 3 day incubation, culture medium is taken and 50 uls used to assay IL-4 production by ELISA (IL-4 ELISA kit from R&D Systems, city. Cat #M4000 kit) according to the standard conditions described by the manufacturer.
IL-4 levels are plotted as a function of compound concentration. The concentration of compound resulting in 50% inhibition of IL-4, termed IC50(IL-4), is determined from the resulting curve.
Assay Procedure • 1. Add 100 ul of 1×10E7/ml mouse splenocytes in RPMI plus 10% FBS media to 96 well round bottom plates. • 2. Add 50 ul of Itk compounds (4× final concentration) in RPMI plus 10% FBS media • 3. Add 50 ul of 4 ug/ml anti-CD3 antibody in RPMI plus 10% FBS media • 4. Incubate at 37 c CO2 incubator for 3 days • 5. Transfer 150 ul culture media into fresh plate • 6. 50 ul of the media is subject to Elisa analysis (R & D Cat #M4000 kit) FlashPlate ITK Protocol for ITK Inhibition Determination

| melting point [°C] | IC50 (ITK) [nM] | IC50 [1] [nM] | Compound |
| --- | --- | --- | --- |
|  | 1.62 | 11.3 | OC1CCCN(CCCOc2ccc3cc(-c4n[nH]c5ccsc45)[nH]c3c2)C1 (stereo not drawn) [Example 8, 1-{3-[2-(1H-Thieno[3,2-c]pyrazol-3-yl)-1H-indol-6-yloxy]-propyl}-piperidin-3-ol] |
|  | 2.08 | 129 | OCC1CCCN(CCCOc2ccc3cc(-c4n[nH]c5ccsc45)[nH]c3c2)C1 (stereo not drawn) [Example 9, (1-{3-[2-(1H-Thieno[3,2-c]pyrazol-3-yl)-1H-indol-6-yloxy]-propyl}-piperidin-3-yl)-methanol] |
|  | 2.94 | 289 | CCN1CCN(CCCOc2ccc3cc(-c4n[nH]c5ccsc45)[nH]c3c2)CC1 [Example 10, 6-[3-(4-Ethyl-piperazin-1-yl)-propoxy]-2-(1H-thieno[3,2-c]pyrazol-3-yl)-1H-indole] |
|  | 24.2 |  | CN(C)CCCOc1ccc2cc(-c3n[nH]c4ccsc34)[nH]c2c1 [Example 11, Dimethyl-{3-[2-(1H-thieno[3,2-c]pyrazol-3-yl)-1H-indol-6-yloxy]-propyl}-amine] |
|  | 5.22 |  | CCN(CC)CCCOc1ccc2cc(-c3n[nH]c4ccsc34)[nH]c2c1 [Example 12, Diethyl-{3-[2-(1H-thieno[3,2-c]pyrazol-3-yl)-1H-indol-6-yloxy]-propyl}-amine] |
|  | 12.3 |  | C=CCN(CC=C)CCCOc1ccc2cc(-c3n[nH]c4ccsc34)[nH]c2c1 [Example 13, Diallyl-{3-[2-(1H-thieno[3,2-c]pyrazol-3-yl)-1H-indol-6-yloxy]-propyl}-amine] |
|  | 15.1 |  | OC1CCN(CCCOc2ccc3cc(-c4n[nH]c5ccsc45)[nH]c3c2)C1 (stereo not drawn) [Example 14, 1-{3-[2-(1H-Thieno[3,2-c]pyrazol-3-yl)-1H-indol-6-yloxyl]-propyl}-pyrrolidin-3-ol] |
|  | 3.26 |  | CN(CCO)CCCOc1ccc2cc(-c3n[nH]c4ccsc34)[nH]c2c1 [Example 15, 2-(Methyl-{3-[2-(1H-thieno[3,2-c]pyrazol-3-yl)-1H-indol-6-yloxy]-propyl}-amino)-ethanol] |
|  | 40.9 |  | OC1CCN(CCCOc2ccc3[nH]c(-c4n[nH]c5ccsc45)cc3c2)CC1 [Example 16, 1-{3-[2-(1H-Thieno[3,2-c]pyrazol-3-yl)-1H-indol-5-yloxy]-propyl}-piperidin-4-ol] |
|  | 76.3 |  | OC1CCCN(CCCOc2ccc3[nH]c(-c4n[nH]c5ccsc45)cc3c2)C1 (stereo not drawn) [Example 17, 1-{3-[2-(1H-Thieno[3,2-c]pyrazol-3-yl)-1H-indol-5-yloxy]-propyl}-piperidin-3-ol] |
|  | 41 |  | OCC1CCCN(CCCOc2ccc3[nH]c(-c4n[nH]c5ccsc45)cc3c2)C1 (stereo not drawn) [Example 18, (1-{3-[2-(1H-Thieno[3,2-c]pyrazol-3-yl)-1H-indol-5-yloxy]-propyl}-piperidin-3-yl)-methanol] |
|  | 45.7 |  | OC1CCN(CCCOc2ccc3[nH]c(-c4n[nH]c5ccsc45)cc3c2)C1 (stereo not drawn) [Example 19, 1-{3-[2-(1H-Thieno[3,2-c]pyrazol-3-yl)-1H-indol-5-yloxy]-propyl}-pyrrolidin-3-ol] |
|  | 112 |  | c1ccc2c(c1)sc1c(-c3nc4ccc(OCCCN5CCCCC5)cc4[nH]3)n[nH]c12 [Example 20, 3-(5-(3-Piperidin-1-yl-propoxy)-1H-Benzoimidazol-2-yl)-1H-benzo[4,5]thieno[3,2-c]pyrazole hydrochloride] |

Further lines, the compound ahead of its results:

| Compound | melting point [°C] | IC50 (ITK) [nM] | IC50 [1] [nM] |
| --- | --- | --- | --- |
| O=C(c1cc2[nH]nc(-c3cc4cc(CO)ccc4[nH]3)c2s1)N1CCN(c2ccc(F)cc2)CC1 | 156 to 158 |  |  |
| OC(c1ccc2cc(-c3n[nH]c4ccsc34)[nH]c2c1)(C1CC1)C1CC1 | 110 to 112 |  |  |
| OC1CCCN(CCCOc2ccc3cc(-c4n[nH]c5cc(-c6ccccc6)sc45)[nH]c3c2)C1 (stereo not drawn) | 213 to 216 |  |  |
| OC1CCN(CCCOc2ccc3cc(-c4n[nH]c5cc(-c6ccccc6)sc45)[nH]c3c2)CC1 | 239 to 242 |  |  |
| COc1cccc(-c2cc3[nH]nc(-c4cc5ccc(OCCCN6CCC(O)CC6)cc5[nH]4)c3s2)c1 | 205 to 207 |  |  |
| c1ccc2[nH]c(-c3n[nH]c4ccsc34)nc2c1 [Example 1, 2-(1H-Thieno[3,2-c]pyrazol-3-yl)-1H-benzimidazole] |  | 167 | 264 |
| COc1ccc2nc(-c3n[nH]c4ccsc34)[nH]c2c1 [Example 2, 6-Methoxy-2-(1H-thieno[3,2-c]pyrazol-3-yl)-1H-benzoimidazole] |  | 157 | 164 |
| COc1ccc2nc(-c3n[nH]c4c3sc3ccccc34)[nH]c2c1 [Example 3, 3-(6-Methoxy-1H-benzimidazol-2-yl)-1H-benzo[4,5]thieno[3,2-c-]pyrazole] |  | 86 | 2900 |
| c1cc2[nH]nc(-c3cc4cc(OCCCN5CCCCC5)ccc4[nH]3)c2s1 [Example 5, 5-(3-Piperidin-1-yl-propoxy)-2-(1H-thieno[3,2-c]pyrazol-3-yl)-indole] |  | 16.6 | 153 |
| OC1CCN(CCCOc2ccc3cc(-c4n[nH]c5ccsc45)[nH]c3c2)CC1 [Example 6, 1-{3-[2-(1H-Thieno[3,2-c]pyrazol-3-yl)-1H-indol-6-yloxy]-propyl}-piperidin-4-ol] |  | 3.65 | 180 |
| c1cc2[nH]nc(-c3cc4ccc(OCCCN5CCCCC5)cc4[nH]3)c2s1 [Example 7, 6-(3-Piperidin-1-yl-propoxy)-2-(1H-thieno[3,2-c]pyrazol-3-yl)-1H-indole] |  | 1.89 | 163 |
